Reference: US7718641B2, “Pyrrolo [3,4-H] isoquinoline compounds and methods for modulating gated ion channels” (Aros Pharma ApS, priority 2005, dated 2010)

Experiments:
rat ASIC1a = biological target: T1, rat ASIC1a (Rattus norvegicus, UniProt P55926); experiment: Whole-cell patch clamp of acid-induced peak inward currents in HEK293 transfected with rat ASIC1a; assay type: cell-based; conditions: for inhibitory effect on acid-induced peak inward currents, rASIC1a: HEK293, voltage clamp, increasing concentrations; for potency as antagonist compared to amiloride, rASIC1a: full dose-inhibition curves, HEK293
T1 construct: expressed in transfected cells; host or cells: HEK293
T1 sequence (P55926 1-526): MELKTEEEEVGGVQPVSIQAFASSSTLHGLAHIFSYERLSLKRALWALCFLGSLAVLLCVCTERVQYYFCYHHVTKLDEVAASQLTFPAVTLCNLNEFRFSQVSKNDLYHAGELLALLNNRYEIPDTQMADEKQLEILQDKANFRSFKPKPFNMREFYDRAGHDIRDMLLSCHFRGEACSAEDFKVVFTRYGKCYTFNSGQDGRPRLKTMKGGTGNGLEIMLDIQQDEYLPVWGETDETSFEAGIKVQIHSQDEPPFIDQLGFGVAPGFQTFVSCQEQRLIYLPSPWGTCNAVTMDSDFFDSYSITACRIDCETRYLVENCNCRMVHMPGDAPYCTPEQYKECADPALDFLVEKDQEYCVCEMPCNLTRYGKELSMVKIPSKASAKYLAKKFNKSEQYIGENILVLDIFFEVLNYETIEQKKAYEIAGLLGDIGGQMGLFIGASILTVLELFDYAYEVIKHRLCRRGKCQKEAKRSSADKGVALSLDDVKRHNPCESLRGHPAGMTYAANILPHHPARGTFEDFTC
Experimental: (§1) Another example of an in vitro assessment method consists of using mammalian heterologous expression systems, which are known to the skilled in the art, and include a variety of mammalian cell lines such as COS, HEK, e.g., HEK293 and/or CHO, cells. Cell lines are transfected with gated ion channel(s) and used to perform electrophysiology as follows:
(§2) All experiments are performed at room temperature (20-25° C.) in voltage clamp using conventional whole cell patch clamp methods (Neher, E., et al. (1978) Pfluegers Arch 375:219-228).
(§3) The amplifier used is the EPC-9 (HEKA-electronics, Lambrect, Germany) run by a Macintosh G3 computer via an ITC-16 interface. Experimental conditions are set with the Pulse-software accompanying the amplifier. Data is low pass filtered and sampled directly to hard-disk at a rate of 3 times the cut-off frequency.
(§4) Pipettes are pulled from borosilicate glass using a horizontal electrode puller (Zeitz-Instrumente, Augsburg, Germany). The pipette resistances are 2-3 MOhms in the salt solutions used in these experiments. The pipette electrode is a chloridized silver wire, and the reference is a silver chloride pellet electrode (In Vivo Metric, Healdsburg, USA) fixed to the experimental chamber. The electrodes are zeroed with the open pipette in the bath just prior to sealing.
(§5) Coverslips with the cells are transferred to a 15 μl experimental chamber mounted on the stage of an inverted microscope (IMT-2, Olympus) supplied with Nomarski optics. Cells are continuously superfused with extracellular saline at a rate of 2.5 ml/min. After giga-seal formation, the whole cell configuration is attained by suction. The cells are held at a holding voltage of −60 mV and at the start of each experiment the current is continuously measured for 45 s to ensure a stable baseline. Solutions of low pH (<7) are delivered to the chamber through a custom-made gravity-driven flowpipe, the tip of which is placed approximately 50 μm from the cell. Application is triggered when the tubing connected to the flowpipe is compressed by a valve controlled by the Pulse-software. Initially, low pH (in general, pH 6.5) is applied for 5 s every 60 s. The sample interval during application is 5501s. […] Current amplitudes are measured at the peak of the responses, and effect of the compounds is calculated as the amplitude at compound equilibrium divided by the amplitude of the current evoked by the pulse just before the compound was included. […]
(§6) HEK293 cells were transfected with rASIC1a or rASIC3 and were used to perform full dose-inhibition curves with Compound A, Compound H and amiloride. Results are expressed as a fraction of the control peak current obtained in the absence of the test substance.

rat ASIC3 = biological target: T2, rat ASIC3 (Rattus norvegicus, UniProt O35240); experiment: Whole-cell patch clamp of acid-induced peak inward currents in HEK293 transfected with rat ASIC3; assay type: cell-based; conditions: for inhibitory effect on acid-induced peak inward currents, rASIC3: HEK293, voltage clamp, increasing concentrations; for potency as antagonist compared to amiloride, rASIC3: full dose-inhibition curves, HEK293
T2 construct: expressed in transfected cells; host or cells: HEK293
T2 sequence (O35240 1-533): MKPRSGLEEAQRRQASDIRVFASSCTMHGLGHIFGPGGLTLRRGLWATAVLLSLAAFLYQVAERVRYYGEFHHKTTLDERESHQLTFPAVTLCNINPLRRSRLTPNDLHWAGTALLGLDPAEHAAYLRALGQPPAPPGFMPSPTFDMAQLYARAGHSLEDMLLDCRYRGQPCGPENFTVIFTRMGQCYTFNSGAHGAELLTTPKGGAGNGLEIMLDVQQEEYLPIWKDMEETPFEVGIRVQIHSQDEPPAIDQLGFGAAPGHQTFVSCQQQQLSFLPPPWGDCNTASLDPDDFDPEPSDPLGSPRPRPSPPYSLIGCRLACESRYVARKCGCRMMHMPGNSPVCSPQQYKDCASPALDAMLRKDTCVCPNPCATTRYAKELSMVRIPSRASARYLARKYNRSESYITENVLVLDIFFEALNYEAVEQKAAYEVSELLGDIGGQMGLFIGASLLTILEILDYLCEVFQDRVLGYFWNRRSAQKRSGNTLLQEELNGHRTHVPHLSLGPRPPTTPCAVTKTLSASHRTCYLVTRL
Experimental: as §1, §2, §3, §4, §5, §6

Row | Compound | inhibitory effect on acid-induced peak inward currents, rASIC1a (rat ASIC1a) | potency as antagonist compared to amiloride, rASIC1a (rat ASIC1a) | inhibitory effect on acid-induced peak inward currents, rASIC3 (rat ASIC3) | potency as antagonist compared to amiloride, rASIC3 (rat ASIC3)
1 | COc1ccc(F)cc1-c1cc2c(c3c1CCN(C)C3)NC(=O)/C2=N/O [Compound A, 5-(5-fluoro-2-methoxyphenyl)-6,7,8,9-tetrahydro-3-(hydroxyimino)-8-methyl-1H-pyrrolo[3,2-h]isoquinoline-2(3H)-one] | dose-dependently inhibit | more potent antagonists as compared to amiloride | dose-dependently inhibit | more potent antagonists as compared to amiloride
2 | CCN1CCc2c(-c3ccccc3)cc3c(c2C1)NC(=O)/C3=N/O [Compound H, 5-phenyl-6,7,8,9-tetrahydro-3-(hydroxyimino)-8-ethyl-1H-pyrrolo[3,2-h]isoquinoline-2(3H)-one] | dose-dependently inhibit | more potent antagonists as compared to amiloride | dose-dependently inhibit | more potent antagonists as compared to amiloride
